Several values for one entry are separate records, joined by “and”; a condition that tells them apart may be missing. Identical values can stand only once. Inconclusive results and toxic doses are left out.
System: CD2F1 mice, L1210 leukemia ip, survival T/C
Test: NCI In Vivo Anticancer Drug Screen. Data for tumor model L1210 Leukemia (intraperitoneal) in CD2F1 (CDF1) mice
Details: higher = longer survival
Procedure, shortened: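 Implant tumor; dose compound or vehicle; measure endpoint in both groups; report treated divided by control.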

[1] = endpoint: mean survival time, dose: 100.0 mg/kg/injection, schedule: Q04DX002 (ip), vehicle: saline with Tween-80
[2] = endpoint: mean survival time, dose: 200.0 mg/kg/injection, schedule: Q04DX002 (ip), vehicle: saline with Tween-80
[3] = endpoint: mean survival time, dose: 100.0 mg/kg/injection, schedule: Q01DX001 (ip), vehicle: saline
[4] = endpoint: mean survival time, dose: 50.0 mg/kg/injection, schedule: Q04DX002 (ip), vehicle: saline with Tween-80
[5] = endpoint: mean survival time, dose: 25.0 mg/kg/injection, schedule: Q04DX003 (ip), vehicle: saline
[6] = endpoint: mean survival time, dose: 100.0 mg/kg/injection, schedule: Q04DX003 (ip), vehicle: saline
[7] = endpoint: mean survival time, dose: 200.0 mg/kg/injection, schedule: Q01DX001 (ip), vehicle: saline
[8] = endpoint: mean survival time, dose: 400.0 mg/kg/injection, schedule: Q01DX001 (ip), vehicle: saline

For `CN[C@H]1CCc2cc(OC)c(OC)c(OC)c2-c2ccc(OC)c(=O)cc21`, the T/C (endpoint: mean survival time, dose: 0.63 mg/kg/injection, schedule: Q01DX009 (ip), vehicle: saline) was 113 % of control and 105 % of control, the T/C (endpoint: mean survival time, dose: 0.63 mg/kg/injection, schedule: Q01DX009 (ip), vehicle: water) was 97 % of control and 101 % of control and the T/C (endpoint: mean survival time, dose: 1.25 mg/kg/injection, schedule: Q01DX009 (ip), vehicle: saline) was 113 % of control and 116 % of control. For the same compound, the T/C (endpoint: mean survival time, dose: 1.25 mg/kg/injection, schedule: Q01DX009 (ip), vehicle: water) was 118 % of control and 108 % of control, the T/C (endpoint: mean survival time, dose: 2.5 mg/kg/injection, schedule: Q01DX007 (ip), vehicle: saline) was 121 % of control and the T/C (endpoint: mean survival time, dose: 2.5 mg/kg/injection, schedule: Q01DX009 (ip), vehicle: saline) was 121 % of control and 123 % of control and 124 % of control. For the same compound, the T/C (endpoint: mean survival time, dose: 2.5 mg/kg/injection, schedule: Q01DX009 (ip), vehicle: water) was 116 % of control and 107 % of control, the T/C (endpoint: mean survival time, dose: 2.5 mg/kg/injection, schedule: Q03DX003 (ip), vehicle: saline) was 102 % of control and the T/C (endpoint: mean survival time, dose: 2.5 mg/kg/injection, schedule: Q04DX003 (ip), vehicle: saline) was 95 % of control. The T/C (endpoint: mean survival time, dose: 5.0 mg/kg/injection, schedule: Q01DX007 (ip), vehicle: saline) was 122 % of control, the T/C (endpoint: mean survival time, dose: 5.0 mg/kg/injection, schedule: Q01DX009 (ip), vehicle: saline) was 120 % of control and the T/C (endpoint: mean survival time, dose: 5.0 mg/kg/injection, schedule: Q01DX009 (ip), vehicle: water) was 118 % of control. The T/C (endpoint: mean survival time, dose: 5.0 mg/kg/injection, schedule: Q03DX003 (ip), vehicle: saline) was 115 % of control, the T/C (endpoint: mean survival time, dose: 5.0 mg/kg/injection, schedule: Q04DX003 (ip), vehicle: saline) was 105 % of control and the T/C (endpoint: mean survival time, dose: 10.0 mg/kg/injection, schedule: Q01DX009 (ip), vehicle: water) was 124 % of control and 108 % of control. The T/C (endpoint: mean survival time, dose: 10.0 mg/kg/injection, schedule: Q04DX003 (ip), vehicle: saline) was 101 % of control, the T/C (endpoint: median survival time, dose: 0.63 mg/kg/injection, schedule: Q01DX009 (ip), vehicle: saline) was 114 % of control and 100 % of control and the T/C (endpoint: median survival time, dose: 1.25 mg/kg/injection, schedule: Q01DX009 (ip), vehicle: saline) was 114 % of control and 100 % of control. For the same compound, the T/C (endpoint: median survival time, dose: 2.5 mg/kg/injection, schedule: Q01DX009 (ip), vehicle: saline) was 121 % of control and 111 % of control and the T/C (endpoint: median survival time, dose: 5.0 mg/kg/injection, schedule: Q01DX009 (ip), vehicle: saline) was 150 % of control.

With `Fc1cc2cc3ccccc3cc2c2ccccc12` the T/C [1] was 101 % of control, the T/C [2] was 104 % of control and the T/C (endpoint: mean survival time, dose: 400.0 mg/kg/injection, schedule: Q04DX002 (ip), vehicle: saline with Tween-80) was 104 % of control.

For `c1ccc2c(c1)[nH]c1c3[n+](ccc12)CCCC3`, the T/C [3] was 119 % of control.

In the case of `CCCCC(CCCC)CS(=O)[O-].[C-]#[O+].[C-]#[O+].[Fe+6].[c-]1[c-][c-][cH-][c-]1`, the T/C (endpoint: mean survival time, dose: 25.0 mg/kg/injection, schedule: Q04DX002 (ip), vehicle: saline) is reported as 102 % of control, the T/C (endpoint: mean survival time, dose: 50.0 mg/kg/injection, schedule: Q04DX002 (ip), vehicle: saline) is reported as 87 % of control and the T/C (endpoint: mean survival time, dose: 100.0 mg/kg/injection, schedule: Q04DX002 (ip), vehicle: saline) is reported as 106 % of control.

In the case of `CCOC(=O)C(=O)C1CCc2c(ccc3ccccc23)C1=O` (stereo not drawn), the T/C [4] is reported as 93 % of control, the T/C (endpoint: mean survival time, dose: 100.0 mg/kg/injection, schedule: Q01DX001 (ip), vehicle: Klucel (hydroxypropylcellulose) (HPC)) is reported as 91 % of control and the T/C [1] is reported as 96 % of control. For the same compound, the T/C (endpoint: mean survival time, dose: 200.0 mg/kg/injection, schedule: Q01DX001 (ip), vehicle: Klucel (hydroxypropylcellulose) (HPC)) was 93 % of control and the T/C [2] was 96 % of control.

With `c1ccc2c(c1)ccc1c[n+]3ccccc3cc12` the T/C (endpoint: mean survival time, dose: 1.25 mg/kg/injection, schedule: Q01DX009 (ip), vehicle: saline with Tween-80) was 95 % of control and the T/C (endpoint: mean survival time, dose: 5.0 mg/kg/injection, schedule: Q04DX003 (ip), vehicle: saline sonified) was 96 % of control.

With `NC(=O)CCC(=O)NCCN1CC1` the T/C [5] was 97 % of control, the T/C (endpoint: mean survival time, dose: 50.0 mg/kg/injection, schedule: Q04DX003 (ip), vehicle: saline) was 97 % of control and the T/C [3] was 104 % of control. For the same compound, the T/C [6] was 96 % of control, the T/C [7] was 98 % of control and the T/C [8] was 115 % of control.

In the case of `COc1ccc(C2OC(=O)c3cccnc32)cc1OC` (stereo not drawn), the T/C (endpoint: mean survival time, dose: 12.5 mg/kg/injection, schedule: Q01DX009 (ip), vehicle: other) is reported as 90 % of control, the T/C (endpoint: mean survival time, dose: 50.0 mg/kg/injection, schedule: Q01DX009 (ip), vehicle: other) is reported as 87 % of control and the T/C (endpoint: mean survival time, dose: 200.0 mg/kg/injection, schedule: Q01DX009 (ip), vehicle: other) is reported as 88 % of control.

For `C=CCOC(c1ccc2c(c1)OCO2)C(C)Br` (stereo not drawn), the T/C (endpoint: mean survival time, dose: 100.0 mg/kg/injection, schedule: Q01DX001 (ip), vehicle: saline with Tween-80) was 94 % of control, the T/C (endpoint: mean survival time, dose: 200.0 mg/kg/injection, schedule: Q01DX001 (ip), vehicle: saline with Tween-80) was 94 % of control and the T/C (endpoint: mean survival time, dose: 400.0 mg/kg/injection, schedule: Q01DX001 (ip), vehicle: saline with Tween-80) was 94 % of control.

With `O=CN(O)CC(=O)O.[Ni]` the T/C (endpoint: mean survival time, dose: 12.5 mg/kg/injection, schedule: Q04DX003 (ip), vehicle: saline) was 102 % of control and the T/C [5] was 102 % of control.

For `O=C(CCCC(=O)c1ccccc1)OC1(c2ccccc2)CCCC(=O)O1` (stereo not drawn), the T/C [4] was 98 % of control, the T/C [1] was 98 % of control and the T/C [2] was 94 % of control.

`Nc1nc2c(ncn2-c2cccc(NC(=O)CBr)c2)c(=O)[nH]1` was tested, and the T/C (endpoint: mean survival time, dose: 37.5 mg/kg/injection, schedule: Q01DX001 (ip), vehicle: saline with Tween-80) was 95 % of control, the T/C (endpoint: mean survival time, dose: 75.0 mg/kg/injection, schedule: Q01DX001 (ip), vehicle: saline with Tween-80) was 100 % of control and the T/C (endpoint: mean survival time, dose: 150.0 mg/kg/injection, schedule: Q01DX001 (ip), vehicle: saline with Tween-80) was 92 % of control.

For `CC(C)C(=O)OC1(C(C)c2ccccc2)C(=O)NC(=O)NC1=O` (stereo not drawn), the T/C (endpoint: mean survival time, dose: 6.25 mg/kg/injection, schedule: Q01DX009 (ip), vehicle: saline with Tween-80) was 92 % of control, the T/C (endpoint: mean survival time, dose: 12.5 mg/kg/injection, schedule: Q01DX009 (ip), vehicle: saline with Tween-80) was 97 % of control and the T/C (endpoint: mean survival time, dose: 25.0 mg/kg/injection, schedule: Q04DX002 (ip), vehicle: saline with Tween-80) was 91 % of control.

`O=c1cc(CCl)n2cnc3c(ncn3C3OC(CO)C(O)C3O)c2n1` (stereo not drawn) was tested, and the T/C (endpoint: median survival time, dose: 12.5 mg/kg/injection, schedule: Q01DX005 (ip), vehicle: saline with Tween-80) was 103 % of control, the T/C (endpoint: median survival time, dose: 25.0 mg/kg/injection, schedule: Q01DX005 (ip), vehicle: saline with Tween-80) was 102 % of control and the T/C (endpoint: median survival time, dose: 50.0 mg/kg/injection, schedule: Q01DX005 (ip), vehicle: saline with Tween-80) was 96 % of control. The T/C (endpoint: median survival time, dose: 100.0 mg/kg/injection, schedule: Q01DX005 (ip), vehicle: saline with Tween-80) was 104 % of control and the T/C (endpoint: median survival time, dose: 200.0 mg/kg/injection, schedule: Q01DX005 (ip), vehicle: saline with Tween-80) was 98 % of control.

In the case of `CC1=C[P+](c2ccccc2)(c2ccccc2)C=C(c2ccccc2)O1`, the T/C (endpoint: median survival time, dose: 1.25 mg/kg/injection, schedule: Q01DX009 (ip), vehicle: suspension in saline) is reported as 108 % of control, the T/C (endpoint: median survival time, dose: 2.5 mg/kg/injection, schedule: Q01DX009 (ip), vehicle: suspension in saline) is reported as 111 % of control and the T/C (endpoint: median survival time, dose: 5.0 mg/kg/injection, schedule: Q01DX009 (ip), vehicle: suspension in saline) is reported as 113 % of control. The T/C (endpoint: median survival time, dose: 10.0 mg/kg/injection, schedule: Q01DX009 (ip), vehicle: suspension in saline) was 123 % of control and the T/C (endpoint: median survival time, dose: 20.0 mg/kg/injection, schedule: Q01DX009 (ip), vehicle: suspension in saline) was 104 % of control.

For `CN1CCC(CCOCc2ccccc2)(CN2c3ccccc3Sc3ccccc32)C1` (stereo not drawn), the T/C (endpoint: mean survival time, dose: 6.25 mg/kg/injection, schedule: Q04DX003 (ip), vehicle: saline with Tween-80) was 106 % of control, the T/C (endpoint: mean survival time, dose: 12.5 mg/kg/injection, schedule: Q04DX003 (ip), vehicle: saline with Tween-80) was 110 % of control and the T/C (endpoint: mean survival time, dose: 25.0 mg/kg/injection, schedule: Q04DX003 (ip), vehicle: saline with Tween-80) was 104 % of control.

With `CSc1nnc(Sc2ccccc2)c(SC)n1` the T/C (endpoint: mean survival time, dose: 75.0 mg/kg/injection, schedule: Q01DX001 (ip), vehicle: saline) was 101 % of control and the T/C (endpoint: mean survival time, dose: 150.0 mg/kg/injection, schedule: Q01DX001 (ip), vehicle: saline) was 98 % of control.

With `C/C=C1/CC2C=Nc3cc(O)c(OC)cc3C(=O)N2C1` (stereo not drawn) the T/C (endpoint: median survival time, dose: 0.02 mg/kg/injection, schedule: Q01DX005 (ip), vehicle: DMSO) was 100 % of control, the T/C (endpoint: median survival time, dose: 0.04 mg/kg/injection, schedule: Q01DX005 (ip), vehicle: DMSO) was 101 % of control and the T/C (endpoint: median survival time, dose: 0.08 mg/kg/injection, schedule: Q01DX005 (ip), vehicle: DMSO) was 104 % of control. For the same compound, the T/C (endpoint: median survival time, dose: 0.16 mg/kg/injection, schedule: Q01DX005 (ip), vehicle: DMSO) was 113 % of control and the T/C (endpoint: median survival time, dose: 0.32 mg/kg/injection, schedule: Q01DX005 (ip), vehicle: DMSO) was 121 % of control.

In the case of `O=C(O)C1(O)C[C@@H](O)C(O)[C@H](O)C1` (stereo partly drawn), the T/C [3] is reported as 102 % of control, the T/C [6] is reported as 108 % of control and the T/C [7] is reported as 96 % of control. For the same compound, the T/C (endpoint: mean survival time, dose: 200.0 mg/kg/injection, schedule: Q04DX003 (ip), vehicle: saline) was 98 % of control, the T/C [8] was 100 % of control and the T/C (endpoint: mean survival time, dose: 400.0 mg/kg/injection, schedule: Q04DX003 (ip), vehicle: saline) was 102 % of control.
